Measurements published in ChEMBL document CHEMBL4342403, “New evolutions in the BACE1 inhibitor field from 2014 to 2018” (Bioorg Med Chem Lett, 2019).

Tests used:
[1] = biological target: T1, Beta-secretase 1 (Homo sapiens, UniProt P56817); test: Inhibition of BACE1 (unknown origin) by cell-based assay
[2] = biological target: T2, Beta-secretase 2 (Homo sapiens, UniProt Q9Y5Z0); test: Inhibition of BACE2 (unknown origin)
T2 sequence (Q9Y5Z0 whole entry): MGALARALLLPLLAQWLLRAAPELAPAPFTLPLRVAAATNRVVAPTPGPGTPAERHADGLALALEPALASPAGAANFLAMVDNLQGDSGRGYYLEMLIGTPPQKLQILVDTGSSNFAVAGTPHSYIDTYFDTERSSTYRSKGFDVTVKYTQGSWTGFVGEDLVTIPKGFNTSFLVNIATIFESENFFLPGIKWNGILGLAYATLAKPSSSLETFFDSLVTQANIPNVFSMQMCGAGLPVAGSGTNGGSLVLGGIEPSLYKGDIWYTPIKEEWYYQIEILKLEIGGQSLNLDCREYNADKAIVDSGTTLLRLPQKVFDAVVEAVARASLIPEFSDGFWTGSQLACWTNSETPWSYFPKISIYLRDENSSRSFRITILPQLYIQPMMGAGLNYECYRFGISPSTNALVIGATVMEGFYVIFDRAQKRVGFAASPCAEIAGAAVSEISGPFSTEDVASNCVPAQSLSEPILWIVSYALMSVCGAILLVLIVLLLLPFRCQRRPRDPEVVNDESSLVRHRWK

[3] = tested on: Canis familiaris; test: In vivo inhibition of BACE1 in dog assessed as reduction in amyloidbeta level in CSF at 1 mg/kg, po measured at 24 hrs post dose relative to control; assay type: functional; settings: Canis lupus familiaris
[4] = tested on: Canis familiaris; test: In vivo inhibition of BACE1 in dog assessed as reduction in amyloidbeta level in CSF at 1 mg/kg, po measured at 48 hrs post dose relative to control; assay type: functional; settings: Canis lupus familiaris
[5] = biological target: T1, Beta-secretase 1; test: Inhibition of BACE1 (unknown origin)
[6] = biological target: T1, Beta-secretase 1; test: Inhibition of human BACE1 using biotin-XSEVNLDAEFRHDSGC-Eu as substrate incubated for 3 hrs by fluorescence method
[7] = tested on: Rattus norvegicus; test: In vivo inhibition of BACE1 in CD-IGS rat assessed as reduction in amyloidbeta 40 level in CSF at 10 mg/kg, po measured at 3 hrs post dose by sandwich ELISA relative to control; assay type: functional
[8] = biological target: T1, Beta-secretase 1; test: Inhibition of human BACE1 catalytic domain preincubated for 30 mins followed by QSY7-EISEVNLDAEFC-Europium-amide substrate addition and measured after […] by HTRF assay
[9] = biological target: T2, Beta-secretase 2; test: Inhibition of human BACE2 preincubated for 30 mins followed by QSY7- EISEVNLDAEFC-Eu-amide substrate addition and measured after […] by HTRF assay
[10] = tested on: Homo sapiens; test: In vivo inhibition of BACE1 in human assessed as reduction in amyloidbeta(1 to 42 residues) level in CSF at 275 mg, qd administered up to 14 days relative to control; assay type: functional
[11] = tested on: Homo sapiens; test: In vivo inhibition of BACE1 in human assessed as reduction in amyloidbeta(1 to 42 residues) level in CSF at 125 mg, qd administered up to 14 days relative to control; assay type: functional
[12] = tested on: Homo sapiens; test: In vivo inhibition of BACE1 in human assessed as reduction in amyloidbeta(1 to 42 residues) level in CSF at 50 mg, qd administered up to 14 days relative to control; assay type: functional
[13] = Dissociation constant, pKa of the compound; assay type: physicochemical
[14] = biological target: Voltage-gated inwardly rectifying potassium channel KCNH2 (Homo sapiens, UniProt Q12809); test: Inhibition of human ERG expressed in CHO cells at holding potential of -80 mV by patch clamp method; assay type: cell-based
Voltage-gated inwardly rectifying potassium channel KCNH2, sequence (Q12809 whole entry): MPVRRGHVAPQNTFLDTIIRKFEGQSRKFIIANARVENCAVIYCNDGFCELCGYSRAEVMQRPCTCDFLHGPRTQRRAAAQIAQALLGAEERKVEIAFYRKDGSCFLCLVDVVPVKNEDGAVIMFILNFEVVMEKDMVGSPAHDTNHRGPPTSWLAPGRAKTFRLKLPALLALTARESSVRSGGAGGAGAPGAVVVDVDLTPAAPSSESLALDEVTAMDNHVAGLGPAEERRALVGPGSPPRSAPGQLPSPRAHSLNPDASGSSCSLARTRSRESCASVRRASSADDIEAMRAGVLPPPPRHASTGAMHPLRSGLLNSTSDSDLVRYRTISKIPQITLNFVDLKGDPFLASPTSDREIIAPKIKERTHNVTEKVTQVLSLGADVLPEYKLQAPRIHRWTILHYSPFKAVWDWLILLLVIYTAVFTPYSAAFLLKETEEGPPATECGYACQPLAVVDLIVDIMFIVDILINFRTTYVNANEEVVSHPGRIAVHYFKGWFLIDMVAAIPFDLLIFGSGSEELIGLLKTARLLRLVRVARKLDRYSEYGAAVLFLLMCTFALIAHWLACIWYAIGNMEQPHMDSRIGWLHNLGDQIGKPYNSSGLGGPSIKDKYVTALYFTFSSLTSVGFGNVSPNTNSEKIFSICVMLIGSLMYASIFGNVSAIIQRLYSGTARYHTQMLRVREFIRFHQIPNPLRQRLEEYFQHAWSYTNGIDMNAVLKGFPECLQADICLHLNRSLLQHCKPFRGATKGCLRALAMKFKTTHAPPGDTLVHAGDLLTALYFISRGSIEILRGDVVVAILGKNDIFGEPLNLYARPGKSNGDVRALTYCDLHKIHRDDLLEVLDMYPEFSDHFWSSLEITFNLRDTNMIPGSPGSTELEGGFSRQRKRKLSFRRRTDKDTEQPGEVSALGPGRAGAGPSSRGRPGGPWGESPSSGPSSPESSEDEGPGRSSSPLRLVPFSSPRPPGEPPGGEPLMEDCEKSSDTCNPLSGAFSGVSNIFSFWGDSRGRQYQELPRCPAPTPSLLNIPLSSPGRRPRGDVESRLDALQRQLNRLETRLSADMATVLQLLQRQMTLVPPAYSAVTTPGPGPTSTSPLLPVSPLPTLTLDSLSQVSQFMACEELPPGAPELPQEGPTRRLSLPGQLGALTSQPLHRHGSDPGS

[15] = biological target: T1, Beta-secretase 1; test: Inhibition of BACE1 (unknown origin) expressed in CHO-K1 cells using Biotin-GLTNIKTEEISEISYAEVEFR-C[Oregon Green]KK-OH as substrate incubated for 3 hrs by fluorescence polarization
[16] = biological target: T1, Beta-secretase 1; test: Inhibition of BACE1 in human H4 cells transfected with APP695 assessed as […] incubated for 18 hrs by ELISA; assay type: cell-based
[17] = biological target: P-glycoprotein (ABCB1) (Homo sapiens, UniProt P08183); test: Substrate activity at P-glycoprotein (unknown origin) in MDCK-MDR1 cells assessed as efflux ratio; assay type: ADME, cell-based
P-glycoprotein (ABCB1), sequence (P08183 whole entry): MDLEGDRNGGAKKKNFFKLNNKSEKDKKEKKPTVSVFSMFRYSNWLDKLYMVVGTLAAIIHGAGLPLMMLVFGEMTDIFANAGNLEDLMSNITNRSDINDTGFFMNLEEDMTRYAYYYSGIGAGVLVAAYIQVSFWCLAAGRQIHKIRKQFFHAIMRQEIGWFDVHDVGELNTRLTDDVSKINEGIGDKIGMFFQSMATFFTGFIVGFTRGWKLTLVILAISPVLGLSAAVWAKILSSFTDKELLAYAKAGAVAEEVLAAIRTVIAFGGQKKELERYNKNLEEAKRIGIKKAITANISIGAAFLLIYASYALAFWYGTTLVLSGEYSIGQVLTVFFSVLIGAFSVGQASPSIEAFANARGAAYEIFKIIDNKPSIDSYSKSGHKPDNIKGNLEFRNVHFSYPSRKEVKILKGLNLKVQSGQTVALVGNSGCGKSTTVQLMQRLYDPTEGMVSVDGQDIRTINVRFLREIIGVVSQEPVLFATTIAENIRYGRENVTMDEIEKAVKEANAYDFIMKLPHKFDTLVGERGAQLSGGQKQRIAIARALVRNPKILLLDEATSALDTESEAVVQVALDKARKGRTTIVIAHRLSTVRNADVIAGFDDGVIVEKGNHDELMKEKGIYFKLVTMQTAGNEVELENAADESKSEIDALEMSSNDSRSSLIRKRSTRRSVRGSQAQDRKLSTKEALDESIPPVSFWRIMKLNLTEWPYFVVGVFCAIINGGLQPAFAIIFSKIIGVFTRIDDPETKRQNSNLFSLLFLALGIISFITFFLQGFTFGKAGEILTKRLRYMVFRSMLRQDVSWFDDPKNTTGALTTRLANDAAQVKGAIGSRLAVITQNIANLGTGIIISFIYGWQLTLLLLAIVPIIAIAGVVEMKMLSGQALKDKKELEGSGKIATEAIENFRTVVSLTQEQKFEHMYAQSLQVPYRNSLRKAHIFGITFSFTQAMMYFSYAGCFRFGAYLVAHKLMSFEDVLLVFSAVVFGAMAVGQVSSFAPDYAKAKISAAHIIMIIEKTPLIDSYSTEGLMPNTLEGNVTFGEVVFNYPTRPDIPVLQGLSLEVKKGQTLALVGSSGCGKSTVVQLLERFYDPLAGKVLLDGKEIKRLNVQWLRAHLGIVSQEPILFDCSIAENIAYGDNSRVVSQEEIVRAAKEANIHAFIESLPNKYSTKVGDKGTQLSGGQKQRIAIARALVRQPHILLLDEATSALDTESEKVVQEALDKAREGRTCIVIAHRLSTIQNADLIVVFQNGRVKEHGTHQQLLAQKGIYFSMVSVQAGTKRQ

[18] = tested on: Homo sapiens; test: In vivo inhibition of BACE1 in human assessed as reduction in amyloidbeta40 level in CSF at 60 mg administered once daily for 7 days relative to baseline; assay type: functional
[19] = tested on: Homo sapiens; test: In vivo inhibition of BACE1 in human assessed as reduction in amyloidbeta40 level in CSF at 12 mg administered once daily for 7 days relative to baseline; assay type: functional
[20] = tested on: Homo sapiens; test: In vivo inhibition of BACE1 in human assessed as reduction in amyloidbeta40 level in CSF at 40 mg administered once daily for 7 days relative to baseline; assay type: functional
[21] = tested on: Homo sapiens; test: In vivo inhibition of BACE1 in human assessed as reduction in amyloidbeta40 level in CSF at 50 mg administered once daily after 14 days relative to baseline; assay type: functional
[22] = tested on: Homo sapiens; test: In vivo inhibition of BACE1 in human assessed as reduction in amyloidbeta40 level in CSF at 30 mg administered once daily after 14 days relative to baseline; assay type: functional
[23] = tested on: Homo sapiens; test: In vivo inhibition of BACE1 in human assessed as reduction in amyloidbeta40 level in CSF at 90 mg administered once daily after 14 days relative to baseline; assay type: functional
[24] = tested on: Rattus norvegicus; test: In vivo inhibition of BACE1 in Sprague Dawley rat assessed as reduction in amyloidbeta 40 level in brain at 30 mg/kg, po measured at 3 hrs post dose by ELISA relative to control; assay type: functional
[25] = tested on: Rattus norvegicus; test: In vivo inhibition of BACE1 in Sprague Dawley rat assessed as reduction in amyloidbeta 40 level in brain at 10 mg/kg, po measured at 3 hrs post dose by ELISA relative to control; assay type: functional
[26] = Brain to plasma partition coefficient, Kp of the compound in Sprague Dawley rat at 30 mg/kg, po; assay type: ADME, organism-based
[27] = Brain to plasma partition coefficient, Kp of the compound in Sprague Dawley rat at 10 mg/kg, po; assay type: ADME, organism-based
[28] = tested on: Homo sapiens; test: In vivo inhibition of BACE1 in human assessed as reduction in amyloidbeta40 level in CSF at 25 mg relative to control; assay type: functional
[29] = tested on: Homo sapiens; test: In vivo inhibition of BACE1 in human assessed as reduction in amyloidbeta40 level in CSF at 200 mg relative to control; assay type: functional
[30] = tested on: Homo sapiens; test: In vivo inhibition of BACE1 in human assessed as reduction in amyloidbeta40 level in CSF at 100 mg relative to control; assay type: functional
[31] = tested on: Homo sapiens; test: In vivo inhibition of BACE1 in human assessed as reduction in amyloidbeta40 level in CSF at 50 mg relative to control; assay type: functional
[32] = tested on: Homo sapiens; test: In vivo inhibition of BACE1 in human assessed as reduction in amyloidbeta40 level in CSF at 150 mg administered once daily for 14 days relative to baseline; assay type: functional
[33] = tested on: Homo sapiens; test: In vivo inhibition of BACE1 in human assessed as reduction in amyloidbeta40 level in CSF at 50 mg administered once daily for 14 days relative to baseline; assay type: functional
[34] = tested on: Homo sapiens; test: In vivo inhibition of BACE1 in human assessed as reduction in amyloidbeta40 level in CSF at 15 mg administered once daily for 14 days relative to baseline; assay type: functional

T1 sequence (P56817 whole entry): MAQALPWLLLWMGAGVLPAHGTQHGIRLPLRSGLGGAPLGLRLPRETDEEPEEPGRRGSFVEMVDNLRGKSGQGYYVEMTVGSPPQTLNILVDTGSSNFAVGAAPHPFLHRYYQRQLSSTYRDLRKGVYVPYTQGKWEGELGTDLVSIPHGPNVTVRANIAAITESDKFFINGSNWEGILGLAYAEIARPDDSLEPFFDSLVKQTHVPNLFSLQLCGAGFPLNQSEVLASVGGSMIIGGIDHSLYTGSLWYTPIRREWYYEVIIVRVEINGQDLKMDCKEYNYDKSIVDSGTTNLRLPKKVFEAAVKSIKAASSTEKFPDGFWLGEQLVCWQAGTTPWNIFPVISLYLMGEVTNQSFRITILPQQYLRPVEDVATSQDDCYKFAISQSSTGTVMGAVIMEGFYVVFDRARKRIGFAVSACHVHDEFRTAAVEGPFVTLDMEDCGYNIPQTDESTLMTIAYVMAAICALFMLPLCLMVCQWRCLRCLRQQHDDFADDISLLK

Question: What does the source list for NC1=N[C@@]2(c3cc(NC(=O)c4ccc(C(F)(F)F)cn4)ccc3F)CO[C@H](C(F)(F)F)[C@H]2CO1?
Answer: IC50 [1]: 1.03 nM; IC50 [2]: 602 nM; inhibition in vivo at 1 mg/kg [3]: 65%; inhibition in vivo at 1 mg/kg [4]: 55%; IC50 [5]: 11.9 nM

Question: Which IC50 [6] does the source give for CC#CC(=O)Nc1ccc(F)c(C2(C)Cc3c(F)cncc3C(N)=N2)c1 (stereo unspecified) here?
Answer: 54 nM

Question: With COc1cnc2c(Nc3ccc(F)c([C@]4(C)CS(=O)(=O)N(C)C(N)=N4)c3)nccc2c1 as the compound, how does the inhibition in vivo at 10 mg/kg [7] read?
Answer: 68%

Question: What about the Ki [8] of the same compound?
Answer: 2.6 nM

Question: What about the Ki [9] of the same compound?
Answer: 3.5 nM

Question: Which results are given for C[C@H]1C[C@H]2CSC(N)=N[C@@]2(c2nc(NC(=O)c3ccc(OC(F)F)cn3)cs2)CO1?
Answer: inhibition (INH) [10]: 93%; inhibition (INH) [11]: 84%; inhibition (INH) [12]: 69%; pKa [13]: 6.9

Question: What does the source list for C[C@H]1C[C@H]2CSC(N)=N[C@@]2(c2ncc(NC(=O)c3ccc(OC(F)F)cn3)s2)CO1?
Answer: IC50 [14]: 12 µM; IC50 [15]: > 100 µM; IC50 [16]: 13.6 µM; pKa [13]: 7; efflux ratio [17]: 7

Question: Which “inhibition (INH)” value [18] does the source give for CN1C(N)=N[C@](C)(c2cc(NC(=O)c3ccc(F)cn3)ccc2F)CS1(=O)=O [VERUBECESTAT] here?
Answer: 84%

Question: And the “inhibition (INH)” value [19]?
Answer: 57%

Question: What about the “inhibition (INH)” value [20] of the same compound?
Answer: 79%

Question: What does the source list for C[C@@]1(c2cc(NC(=O)c3ccc(C#N)cn3)ccc2F)C=CSC(N)=N1 [ATABECESTAT]?
Answer: inhibition (INH) [21]: >80%; inhibition (INH) [22]: >80%; inhibition (INH) [23]: >80%

Question: What does the source list for Cc1cc(C#N)cnc1C(=O)Nc1ccc(F)c([C@@]2(C)N=C(N)[C@@](C)(F)CC2(F)F)c1?
Answer: inhibition in vivo at 30 mg/kg [24]: 61%; inhibition in vivo at 10 mg/kg [25]: 66%; Kp [26]: 0.5; Kp [27]: 0.5

Question: For C[C@H]1OC[C@]2(c3cc(NC(=O)c4cnc(C(F)F)cn4)ccc3F)N=C(N)SC[C@H]12 [ELENBECESTAT], which IC50 [1] is on record?
Answer: 7 nM

Question: And the “inhibition (INH)” value [28]?
Answer: 56%

Question: What about the “inhibition (INH)” value [29] of the same compound?
Answer: 90%

Question: And the “inhibition (INH)” value [30]?
Answer: 83%

Question: What about the “inhibition (INH)” value [31] of the same compound?
Answer: 71%

Question: Which results are given for CC#Cc1cncc(-c2ccc3c(c2)[C@]2(N=C(C)C(N)=N2)[C@]2(CC[C@@H](OC)CC2)C3)c1?
Answer: inhibition (INH) [32]: 90%; inhibition (INH) [33]: 76%; inhibition (INH) [34]: 52%
